Key:
[1] = target: T1, human muscarinic acetylcholine M3 receptor (Homo sapiens, UniProt P20309); assay: Muscarinic 3 receptor binding assay ([3H]NMS competition, SPA), pIC50; conditions: [3H]NMS 0.1 nM, CHO-K1 cell membranes expressing human M3 receptor
T1 construct: expressed in transfected cells; host or cells: CHO-K1 (Chinese Hamster Ovary) cell membranes
Outline: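 SPA beads precoated with human M3-expressing CHO-K1 membranes were incubated 16 h at room temperature with serially diluted compound and 0.1 nM [3H]NMS (pH 7.4 HEPES buffer, MgCl2, BSA, 1% DMSO). Atropine (1 μM) defined non-specific binding; pIC50 is the 50% reduction in specific binding.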

Adrenergic β2 = target: T2, Adrenergic β2 (Homo sapiens, UniProt P07550); assay: Adrenergic β2 mediated cAMP production in H292 cells (AlphaScreen), concentration response; assay type: cell-based; conditions: for EC50: 60 min, 300 μM rolipram, read-out: β2 pEC50 (converted); for β2 Intrinsic Activity: fraction relative to the maximum activity determined for formoterol
T2 construct: Adherent H292 cells are removed from tissue culture flasks by treatment with Accutase™ cell detachment solution; endogenous in cells; host or cells: H292 cells
T2 sequence (P07550 whole entry): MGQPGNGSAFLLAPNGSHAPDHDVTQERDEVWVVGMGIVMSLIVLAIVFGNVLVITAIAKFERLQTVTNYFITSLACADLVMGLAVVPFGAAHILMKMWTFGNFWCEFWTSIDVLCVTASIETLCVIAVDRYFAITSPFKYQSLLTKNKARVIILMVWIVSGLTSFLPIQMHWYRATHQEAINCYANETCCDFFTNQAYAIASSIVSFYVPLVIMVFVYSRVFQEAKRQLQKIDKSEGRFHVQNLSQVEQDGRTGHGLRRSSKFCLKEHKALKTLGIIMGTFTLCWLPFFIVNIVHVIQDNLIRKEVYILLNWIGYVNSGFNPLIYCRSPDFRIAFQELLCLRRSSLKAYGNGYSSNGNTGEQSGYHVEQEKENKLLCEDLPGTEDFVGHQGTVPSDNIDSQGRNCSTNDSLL
Outline: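 Intracellular cAMP in lysates read by AlphaScreen, calibrated with cAMP standards; curves fitted for pEC50, with intrinsic activity as a fraction of formoterol's maximum. Agonist exposure 60 min at room temperature after 10 min rolipram (300 μM final), 1% DMSO, HEPES-buffered HBSS pH 7.4.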

T1 sequence (P20309 whole entry): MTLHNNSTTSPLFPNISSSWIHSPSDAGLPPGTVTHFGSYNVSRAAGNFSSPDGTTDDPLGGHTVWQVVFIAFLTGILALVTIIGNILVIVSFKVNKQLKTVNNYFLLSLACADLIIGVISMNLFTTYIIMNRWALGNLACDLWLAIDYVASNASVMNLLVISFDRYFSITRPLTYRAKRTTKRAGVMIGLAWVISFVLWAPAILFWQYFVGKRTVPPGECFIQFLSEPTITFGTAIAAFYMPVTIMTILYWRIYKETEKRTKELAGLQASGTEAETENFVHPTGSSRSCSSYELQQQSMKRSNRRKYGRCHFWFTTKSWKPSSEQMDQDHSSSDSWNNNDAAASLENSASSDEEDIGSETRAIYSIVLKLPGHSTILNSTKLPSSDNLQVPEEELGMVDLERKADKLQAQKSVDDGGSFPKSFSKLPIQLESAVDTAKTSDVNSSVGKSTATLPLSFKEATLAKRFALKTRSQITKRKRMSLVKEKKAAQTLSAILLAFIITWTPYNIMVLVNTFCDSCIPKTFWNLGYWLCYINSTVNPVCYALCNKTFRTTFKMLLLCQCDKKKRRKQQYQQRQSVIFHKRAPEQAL

Structure (SMILES)	IC50 [1] [nM]	EC50 (Adrenergic β2) [nM]	β2 Intrinsic Activity (Adrenergic β2)
CC(C)c1nc(C(=O)N2CCOC3(CCN(Cc4cccc(CCOCCC(=O)N(C)CCNCCc5ccc(O)c6[nH]c(=O)sc56)c4F)CC3)C2)cs1 [Example 13, 3-(2-Fluoro-3-((4-(2-isopropylthiazole-4-carbonyl)-1-oxa-4,9-diazaspiro[5.5]undecan-9-yl)methyl)phenethoxy)-N-(2-(2-(4-hydroxy-2-oxo-2,3-dihydrobenzo[d]thiazol-7-yl)ethylamino)ethyl)-N-methylpropanamide ditrifluoroacetate]	0.631	25.1	0.8
O=C1COc2c(CCNCCN(C(=O)CCOCCc3cccc(CN4CCC5(CC4)CN(C(=O)c4csc(-c6ccccc6)n4)CCO5)c3)C3CCCCC3)ccc(O)c2N1 [Example 82, N-Cyclohexyl-N-(2-(2-(5-hydroxy-3-oxo-3,4-dihydro-2H-benzo[b][1,4]oxazin-8-yl)ethylamino)ethyl)-3-(3-((4-(2-phenylthiazole-4-carbonyl)-1-oxa-4,9-diazaspiro[5.5]undecan-9-yl)methyl)phenethoxy)propanamide]	1.26	501	1.0
CCN(CCNCCc1ccc(O)c2[nH]c(=O)sc12)C(=O)CCOCCc1ccc(CCN2CCC3(CC2)CN(C(=O)c2csc(C(C)C)n2)CCO3)s1 [Example 52, N-Ethyl-N-(2-(2-(4-hydroxy-2-oxo-2,3-dihydrobenzo[d]thiazol-7-yl)ethylamino)ethyl)-3-(2-(5-(2-(4-(2-isopropylthiazole-4-carbonyl)-1-oxa-4,9-diazaspiro[5.5]undecan-9-yl)ethyl)thiophen-2-yl)ethoxy)propanamide ditrifluoroacetate]	1.58	12.6	0.9
CC(C)c1nc(C(=O)N2CCOC3(CCN(Cc4cccc(CCOCCC(=O)N(CCNCCc5ccc(O)c6c5OCC(=O)N6)C5CCCCCC5)c4F)CC3)C2)cs1 [Example 7, N-Cycloheptyl-3-(2-fluoro-3-((4-(2-isopropylthiazole-4-carbonyl)-1-oxa-4,9-diazaspiro[5.5]undecan-9-yl)methyl)phenethoxy)-N-(2-(2-(5-hydroxy-3-oxo-3,4-dihydro-2H-benzo[b][1,4]oxazin-8-yl)ethylamino)ethyl)propanamide ditrifluoroacetate]	0.631	39.8	1.0
CC(C)c1nc(C(=O)N2CCOC3(CCN(Cc4cc(F)cc(CCOCCC(=O)N(CCNCCc5ccc(O)c6c5OCC(=O)N6)C5CCCCC5)c4)CC3)C2)cs1 [Example 47, N-Cyclohexyl-3-(3-fluoro-5-((4-(2-isopropylthiazole-4-carbonyl)-1-oxa-4,9-diazaspiro[5.5]undecan-9-yl)methyl)phenethoxy)-N-(2-(2-(5-hydroxy-3-oxo-3,4-dihydro-2H-benzo[b][1,4]oxazin-8-yl)ethylamino)ethyl)propanamide ditrifluoroacetate]	0.398	63.1	0.9
CCc1cc(C(=O)N2CCOC3(CCN(Cc4cccc(CCOCCC(=O)N(CC)CCNCCc5ccc(O)c6c5OCC(=O)N6)c4F)CC3)C2)cs1 [Example 24, N-Ethyl-3-(3-((4-(5-ethylthiophene-3-carbonyl)-1-oxa-4,9-diazaspiro[5.5]undecan-9-yl)methyl)-2-fluorophenethoxy)-N-(2-(2-(5-hydroxy-3-oxo-3,4-dihydro-2H-benzo[b][1,4]oxazin-8-yl)ethylamino)ethyl)propanamide ditrifluoroacetate]	1	79.4	0.9
CCc1nc(C(=O)N2CCOC3(CCN(CCc4ccc(CCOCCC(=O)N(CCCCCO)CCNCCc5ccc(O)c6[nH]c(=O)sc56)cc4)CC3)C2)cs1 [Example 75, 3-(4-(2-(4-(2-Ethylthiazole-4-carbonyl)-1-oxa-4,9-diazaspiro[5.5]undecan-9-yl)ethyl)phenethoxy)-N-(2-(2-(4-hydroxy-2-oxo-2,3-dihydrobenzo[d]thiazol-7-yl)ethylamino)ethyl)-N-(5-hydroxypentyl)propanamide diformate]	0.501	50.1	0.9
CCN(CCNCCc1ccc(O)c2[nH]c(=O)sc12)C(=O)CCOCCc1ccc(CCN2CCC3(CC2)CN(C(=O)c2csc(C(C)C)n2)CCO3)cc1 [Example 1, N-Ethyl-N-(2-(2-(4-hydroxy-2-oxo-2,3-dihydrobenzo[d]thiazol-7-yl)ethylamino)ethyl)-3-(4-(2-(4-(2-isopropylthiazole-4-carbonyl)-1-oxa-4,9-diazaspiro[5.5]undecan-9-yl)ethyl)phenethoxy)propanamide ditrifluoroacetate]	2	31.6	0.7
CC(C)c1nc(C(=O)N2CCOC3(CCN(CCOc4cccc(CCOCCC(=O)N(CCNCCc5ccc(O)c6c5OCC(=O)N6)C5CCCCC5)c4)CC3)C2)cs1 [Example 53, N-Cyclohexyl-N-(2-(2-(5-hydroxy-3-oxo-3,4-dihydro-2H-benzo[b][1,4]oxazin-8-yl)ethylamino)ethyl)-3-(3-(2-(4-(2-isopropylthiazole-4-carbonyl)-1-oxa-4,9-diazaspiro[5.5]undecan-9-yl)ethoxy)phenethoxy)propanamide ditrifluoroacetate]	7.94	20	1.0

These reach a lower IC50 [1]. Values come first.

IC50 [1] [nM]	EC50 (Adrenergic β2) [nM]	β2 Intrinsic Activity (Adrenergic β2)	Structure (SMILES)
0.1	100	0.9	CC(C)c1nc(C(=O)N2CCOC3(CCN(Cc4cccc(SCCCOCCC(=O)N(CCNCCc5ccc(O)c6c5OCC(=O)N6)C5CCCC5)c4)CC3)C2)cs1 [Example 54, N-Cyclopentyl-N-(2-(2-(5-hydroxy-3-oxo-3,4-dihydro-2H-benzo[b][1,4]oxazin-8-yl)ethylamino)ethyl)-3-(3-(3-((4-(2-isopropylthiazole-4-carbonyl)-1-oxa-4,9-diazaspiro[5.5]undecan-9-yl)methyl)phenylthio)propoxy)propanamide ditrifluoroacetate]
0.0631	200	1.2	CC(C)c1nc(C(=O)N2CCOC3(CCN(Cc4csc(CCOCCC(=O)N(CCNCCc5ccc(O)c6c5OCC(=O)N6)C5CCCCC5)c4)CC3)C2)cs1 [Example 56, N-Cyclohexyl-N-(2-(2-(5-hydroxy-3-oxo-3,4-dihydro-2H-benzo[b][1,4]oxazin-8-yl)ethylamino)ethyl)-3-(2-(4-((4-(2-isopropylthiazole-4-carbonyl)-1-oxa-4,9-diazaspiro[5.5]undecan-9-yl)methyl)thiophen-2-yl)ethoxy)propanamide ditrifluoroacetate]
< 0.0316	398	1.0	Cc1nc(C(=O)N2CCOC3(CCN(Cc4cccc(CCOCCC(=O)N(CCNCCc5ccc(O)c6[nH]c(=O)ccc56)C5CCCCC5)c4)CC3)C2)cs1 [Example 42, N-Cyclohexyl-N-(2-(2-(8-hydroxy-2-oxo-1,2-dihydroquinolin-5-yl)ethylamino)ethyl)-3-(3-((4-(2-methylthiazole-4-carbonyl)-1-oxa-4,9-diazaspiro[5.5]undecan-9-yl)methyl)phenethoxy)propanamide ditrifluoroacetate]
0.126	50.1	1.0	COCCN(CCNCCc1ccc(O)c2c1OCC(=O)N2)C(=O)CCOCCc1cccc(CN2CCC3(CC2)CN(C(=O)c2csc(C(C)C)n2)CCO3)c1Cl [Example 70, 3-(2-Chloro-3-((4-(2-isopropylthiazole-4-carbonyl)-1-oxa-4,9-diazaspiro[5.5]undecan-9-yl)methyl)phenethoxy)-N-(2-(2-(5-hydroxy-3-oxo-3,4-dihydro-2H-benzo[b][1,4]oxazin-8-yl)ethylamino)ethyl)-N-(2-methoxyethyl)propanamide ditrifluoroacetate]
0.251	200	0.8	CC(C)c1nc(C(=O)N2CCOC3(CCN(Cc4cccc(CCOCCC(=O)N(CCNCCc5ccc(O)c6c5OCC(=O)N6)C(C)C)c4F)CC3)C2)cs1 [Example 16, 3-(2-Fluoro-3-((4-(2-isopropylthiazole-4-carbonyl)-1-oxa-4,9-diazaspiro[5.5]undecan-9-yl)methyl)phenethoxy)-N-(2-(2-(5-hydroxy-3-oxo-3,4-dihydro-2H-benzo[b][1,4]oxazin-8-yl)ethylamino)ethyl)-N-isopropylpropanamide ditrifluoroacetate]
0.2	158	1.0	O=C1COc2c(CCNCCN(C(=O)CCOCCc3cccc(CN4CCC5(CC4)CN(C(=O)c4csc(C6CCC6)n4)CCO5)c3)C3CCCCC3)ccc(O)c2N1 [Example 87, 3-(3-((4-(2-Cyclobutylthiazole-4-carbonyl)-1-oxa-4,9-diazaspiro[5.5]undecan-9-yl)methyl)phenethoxy)-N-cyclohexyl-N-(2-(2-(5-hydroxy-3-oxo-3,4-dihydro-2H-benzo[b][1,4]oxazin-8-yl)ethylamino)ethyl)propanamide]
0.2	100	0.7	CCN(CCNCCc1ccc(O)c2c1OCC(=O)N2)C(=O)CCOCCc1cccc(CN2CCC3(CC2)CN(C(=O)c2csc(C(C)C)c2)CCO3)c1F [Example 74, N-Ethyl-3-(2-fluoro-3-((4-(5-isopropylthiophene-3-carbonyl)-1-oxa-4,9-diazaspiro[5.5]undecan-9-yl)methyl)phenethoxy)-N-(2-(2-(5-hydroxy-3-oxo-3,4-dihydro-2H-benzo[b][1,4]oxazin-8-yl)ethylamino)ethyl)propanamide ditrifluoroacetate]
